Assay results taken from patent publication US20110165115A1, “SYNERGISTIC ATTRACTANTS FOR PESTIFEROUS SOCIAL INSECTS” (STERLING INTERNATIONAL INC., priority 2010, published 2011).

What was measured:
[1] = tested on: Polistes dominulus worker antennae; assay: GC-EAD of cherry branch aeration samples
Experimental: Lapin cherry branches with severely damaged cherries and leaves and undamaged or slightly damaged branches were collected from a cherry orchard at Creston, Canada, on Jul. 29, 2009, and were transported to the Sterling International, Inc. lab (Spokane, Wash.) on the same day and kept at 4° C. before aerations. Headspace volatiles from the cherry branches (damaged or undamaged) were sampled by a battery operated pump and a high density polyacetate oven bag (48.2×59.6 cm Reynolds® Oven Bag; Richmond, Va., USA) enclosure with one activated charcoal filter tube in the air inlet, on Jul. 30, 2009. The volatiles in the enclosure were trapped on one Porapak Q tube (50/80 mesh; 30 mg in Teflon tube: 3 mm×35 mm) for 2.5 hr (airflow 300 ml/min) and extracted with 1 ml redistilled pentane. Aeration samples of the cherry branches (damaged or undamaged/slightly damaged) were injected (3 μl) splitless into a Varian CP-3800 GC equipped with a polar column (HP-INNOWax; 30 m×0.53 mm×1.0 μm film thickness; […] Helium was used as the carrier gas, and the injector and detector temperatures were 250° C. and 300° C., respectively. Column temperature was 50° C. for 1 min, rising to 240° C. at 10° C./min, and then held for 10 min. The outlet for the EAD was held in a humidified air stream flowing at 0.5 m/sec over the antennal preparation. EAD recordings were made using silver wire-glass capillary electrodes filled with Beadle-Ephrussi Ringer on freshly cut antennae. The antennal signals were stored and analyzed on a PC equipped with a serial IDAC interface box and the program EAD ver. 2.5 (Syntech, Hilversum, The Netherlands). […] (See FIG. 2.) The same chemicals were also tested on beneficial insect antennae from Chrysopa oculata, Myrmeleon crudelis, Podisus maculiventris, and Hippodarnia convergens. (See […] active peaks in the aeration samples were identified by GC-MS on an HP 6890 GC series coupled with an HP 5973 Mass Selective Detector using the same type of GC column and conditions as described above. Compounds were identified by comparison of retention times with those of authentic standards and with mass spectra of standards.

[2] = tested on: V. pensylvanica; assay: Field trapping Experiment 1, Rescue W•H•Y traps; type: in vivo, Vespula pensylvanica; conditions: Exp 1; HIPV added to WHY attractant in the top chamber, or WHY alone
Experimental: (§1) Three field trapping experiments were carried out during late July to early August 2009, in residential and woody areas around Spokane, Wash., USA, using the newly marketed Rescue® W•H•Y traps (www.rescue.com). As used herein, the W•H•Y trap is a trap in accordance with the description of United States Patent Application Publication No. 2009/0151228. The W•H•Y trap has a top chamber and a bottom chamber. The top chamber is baited with two attractants—one of which is a solid contained in a vial (2-methyl-1-butanol) and the other a liquid mixed with water (acetic acid), herein referred to as the W•H•Y top attractant. The bottom chamber is baited with a liquid attractant (heptyl butyrate) poured onto a cotton pad, herein referred to as the W•H•Y bottom attractant. Separation of the top and bottom attractants (otherwise antagonistic to each other when released from the same chamber) in two chambers was a design feature of this trap and creates two focal attraction sources from one trap for different species of wasps, hornets, and yellowjackets. Traps were hung 1.5-2.0 m above the ground on either the fence or tree branches ca. 5 m apart within each trap line. For each trapping experiment, six sets of traps were deployed with their initial trap positions within each set being randomized. To minimize positional effects and obtain more replications, wasp collections and trap re-randomization were carried out when ≧10-20 wasps were caught in the best trap. Each replicate lasted several days depending on wasp flight activity. Captured wasps were removed from the traps and kept in the zip-bags before taking back to the laboratory for recording of the species, gender status, and catch.
(§2) Experiment 3 (Aug. 5-13, 2009) was conducted to determine the potential behavioral activity of different doses of (E)-4,8-dimethyl-1,3,7-nonatriene alone. The individual (or different doses) HIPVs were loaded into either polyethylene bags or centrifuge tube type of dispensers, and released from the top of the W•H•Y trap chamber. W•H•Y trap attractants (both top and bottom or top only) alone and water (top chamber only) were included in the test as positive and blank controls, respectively. The dispenser types, loading and release rates of the tested semiochemicals are described in Tables 1, 2 and 3.
(§3) Trap catch data were converted to proportion (P) of total captured wasps within each replicate. Data were then transformed by arcsin√P to meet the assumptions of normality and homogeneity of variances for ANOVA. Means were compared by ANOVA followed by the Ryan-Einot-Gabriel-Welsh (REGW) multiple Q test (SPSS 16.0 for Windows) at α=0.05.

[3] = tested on: V. vulgaris; assay: Field trapping Experiment 1, Rescue W•H•Y traps; type: in vivo, Vespula vulgaris; conditions: Exp 1; HIPV added to WHY attractant in the top chamber, or WHY alone
Experimental: as §1, §2, §3

[4] = tested on: D. maculata; assay: Field trapping Experiment 1, Rescue W•H•Y traps; type: in vivo, Dolichovespula maculata; conditions: Exp 1; HIPV added to WHY attractant in the top chamber, or WHY alone
Experimental: as §1
(§4) Experiment 1 (Jul. 22-30, 2009) tested ten synthetic HIPV candidates [(E)-2-hexenal, (Z)-3-hexen-1-ol, (Z)-3-hexenyl acetate, cis-ocimene, linalool, methyl salicylate, geranyl acetate, trans-β-caryophyllene, trans-β-farnesene and (E)-4,8-dimethyl-1,3,7-nonatriene], including several paper wasp EAD-active compounds (see FIG. 2 for details), to determine their potential synergistic effect on the Rescue® W•H•Y trap attractants to paper wasps, yellowjackets, and hornets. Experiment 2 (Aug. 5-13, 2009) tested behavioral responses of the paper wasps and yellowjackets to the Rescue® W•H•Y trap attractants (top attractants only) and its combination with (E)-4,8-dimethyl-1,3,7-nonatriene, one of the EAD-active and behaviorally significant HIPVs, in a dose-response fashion. Experiment 3 (Aug. 5-13, 2009) was conducted to determine the potential behavioral activity of different doses of (E)-4,8-dimethyl-1,3,7-nonatriene alone. The individual (or different doses) HIPVs were loaded into either polyethylene bags or centrifuge tube type of dispensers, and released from the top of the W•H•Y trap chamber. W•H•Y trap attractants (both top and bottom or top only) alone and water (top chamber only) were included in the test as positive and blank controls, respectively. The dispenser types, loading and release rates of the tested semiochemicals are described in Tables 1, 2 and 3.
as §3

[5] = tested on: D. arenaria; assay: Field trapping Experiment 1, Rescue W•H•Y traps; type: in vivo, Dolichovespula arenaria; conditions: Exp 1; HIPV added to WHY attractant in the top chamber, or WHY alone
Experimental: as §1, §4, §3

[6] = tested on: V. acadica; assay: Field trapping Experiment 1, Rescue W•H•Y traps; type: in vivo, Vespula acadica; conditions: Exp 1; HIPV added to WHY attractant in the top chamber, or WHY alone
Experimental: as §1, §2, §3

[7] = tested on: V. consobrina; type: in vivo, Vespula consobrina; conditions: Exp 1; HIPV added to WHY attractant in the top chamber, or WHY alone
Experimental: as §1, with “catch. […]” for “catch.”
as §3

[8] = tested on: P. dominulus; assay: Field trapping Experiment 1, Rescue W•H•Y traps; type: in vivo, Polistes dominulus; conditions: Exp 1; HIPV added to WHY attractant in the top chamber, or WHY alone
Experimental: as §1, §2, §3

[9] = tested on: P. aurifer; assay: Field trapping Experiment 1, Rescue W•H•Y traps; type: in vivo, Polistes aurifer; conditions: Exp 1; HIPV added to WHY attractant in the top chamber, or WHY alone
Experimental: as §1, §2, §3

[10] = tested on: V. atropilosa; type: in vivo, Vespula atropilosa; conditions: Exp 1; HIPV added to WHY attractant in the top chamber, or WHY alone
[11] = tested on: yellowjackets; assay: Field trapping Experiment 1, top chamber catches; type: in vivo; conditions: Exp 1; HIPV combined with W•H•Y attractant (acetic acid and 2-methyl-1-butanol) in the top chamber
Experimental: as §1
(§5) Experiment 3 (Aug. 5-13, 2009) was conducted to determine the potential behavioral activity of different doses of (E)-4,8-dimethyl-1,3,7-nonatriene alone. The individual (or different doses) HIPVs were loaded into either polyethylene bags or centrifuge tube type of dispensers, and released from the top of the W•H•Y trap chamber. […]

[12] = tested on: P. dominulus workers antennae; assay: GC-EAD of synthetic mixture of known HIPVs; parameters: species or system Polistes dominulus; conditions: 100 ng/μl each in hexane
Experimental: (§6) Aeration samples of the cherry branches (damaged or undamaged/slightly damaged) were injected (3 μl) splitless into a Varian CP-3800 GC equipped with a polar column (HP-INNOWax; 30 m×0.53 mm×1.0 μm film thickness; Agilent Technologies, Wilmington, Del., USA) and a 1:1 effluent splitter that allowed simultaneous flame ionization detection (FID) and electroantennographic detection (EAD) of the European paper wasp (Polistes dominulus) worker antennae to the separated volatile compounds. Helium was used as the carrier gas, and the injector and detector temperatures were 250° C. and 300° C., respectively. Column temperature was 50° C. for 1 min, rising to 240° C. at 10° C./min, and then held for 10 min. The outlet for the EAD was held in a humidified air stream flowing at 0.5 m/sec over the antennal preparation. EAD recordings were made using silver wire-glass capillary electrodes filled with Beadle-Ephrussi Ringer on freshly cut antennae. The antennal signals were stored and analyzed on a PC equipped with a serial IDAC interface box and the program EAD ver. 2.5 (Syntech, Hilversum, The Netherlands). In addition, GC-EAD responses to a synthetic mixture (100 ng/μl each) containing nine known HIPVs including cis-3-hexen-1-ol, cis-3-hexenyl acetate, trans-β-ocimene, (E)-4,8-dimethyl-1,3,7-nonatriene, linalool, methyl salicylate, geranyl acetate, trans-β-caryophyllene and trans-β-farnesene were tested on the P. dominulus workers. (See FIG. 2.) The same chemicals were also tested on beneficial insect antennae from Chrysopa oculata, Myrmeleon crudelis, Podisus maculiventris, and Hippodarnia convergens. (See FIG. 6.) Antennally active peaks in the aeration samples were identified by GC-MS on an HP 6890 GC series coupled with an HP 5973 Mass Selective Detector using the same type of GC column and conditions as described above. Compounds were identified by comparison of retention times with those of authentic standards and with mass spectra of standards.

[13] = tested on: paper wasps and yellowjackets; assay: Field trapping bioassays, synergism with AA/2MB (summary); type: in vivo; conditions: at the doses tested
Experimental: as §1, §5

[14] = tested on: Chrysopa oculata antennae; assay: GC-EAD of synthetic HIPVs on beneficial insect antennae; conditions: FIG. 6
Experimental: as §6

[15] = tested on: Hippodarnia convergens antennae; assay: as above; conditions: FIG. 6
Experimental: as §6

[16] = tested on: Myrmeleon crudelis antennae; assay: as above; conditions: FIG. 6
Experimental: as §6

[17] = tested on: Podisus maculiventris antennae; assay: as above; conditions: FIG. 6
Experimental: as §6

[18] = aeration of severely damaged cherry branches, at current release rates
[19] = aeration of undamaged or slightly damaged cherry branches

Compound	EAD response of worker antennae [1, 18]	Total Yellowjacket Catches V. pensylvanica [2]	Total Yellowjacket Catches V. vulgaris [3]	Total Yellowjacket Catches D. maculata [4]	Total Yellowjacket Catches D. arenaria [5]	Total Yellowjacket Catches V. acadica [6]	Total Yellowjacket Catches V. consobrina [7]	Total Paper Wasps P. dominulus [8]	Total Paper Wasps P. aurifer [9]	Total Yellowjacket Catches V. atropilosa [10]	EAD response of worker antennae [12]	also measured
CCCCCCCCC=O [nonanal]	repeatable antennal response	–	–	–	–	–	–	–	–	–	–	EAD response of worker antennae [1, 19]: strongly responded
CCC/C=C/C=O [E-2-Hexenal, (E)-2-hexenal]	–	423	44	2	4	0	0	19	8	3	–	–
Cc1ccc(C(C)C)cc1 [p-cymene]	did not elicit significant EAD-responses	–	–	–	–	–	–	–	–	–	–	–
CC(=O)OC/C=C(\C)CCC=C(C)C [Geranyl Acetate, geranyl acetate]	–	128	18	1	2	0	1	13	4	2	responded consistently	effect on trap catches of yellowjackets in the top chambers [11]: inhibitory effect
C=CC(C)(O)CCC=C(C)C (stereo not drawn) [Linalool, linalool]	–	291	32	1	0	0	0	46	13	0	responded consistently	–
C=C/C(C)=C/C/C=C(\C)CCC=C(C)C [α-farnesene]	did not elicit significant EAD-responses	–	–	–	–	–	–	–	–	–	–	–
CCC/C=C/COC(C)=O [(E)-2-hexenyl acetate]	–	–	–	–	–	–	–	–	–	–	–	EAD response of worker antennae [1, 19]: strongly responded
C=C/C(C)=C/CC=C(C)C [β-ocimene, trans-β-ocimene]	–	–	–	–	–	–	–	–	–	–	responded consistently	synergism of attraction to mixture of acetic acid and 2-methyl-1-butanol [13]: significantly synergize; EAD-response [14]: strong EAD-responses; EAD-response [15]: strong EAD-responses; EAD-response [16]: strong EAD-responses; EAD-response [17]: strong EAD-responses
C=C/C=C(/C)CCC=C(C)C [(Z)-4,8-dimethyl-1,3,7-nonatriene]	–	–	–	–	–	–	–	–	–	–	responded consistently	–
